This is an account of results in ChEMBL document CHEMBL1255512, “Pyrazolo[1,5-a]pyrimidine acetamides: 4-Phenyl alkyl ether derivatives as potent ligands for the 18 kDa translocator protein (TSPO)” (Bioorg Med Chem Lett, 2010).

The target in test [1] is Alpha-1B adrenergic receptor (Homo sapiens, UniProt P35368). The test is described as follows: Inhibition of Alpha-1B adrenergic receptor.
Test [2] deals with Kappa-type opioid receptor (Homo sapiens, UniProt P41145). The experiment in a line: Inhibition of kappa opioid receptor.
Chain of Kappa-type opioid receptor (P41145 whole entry): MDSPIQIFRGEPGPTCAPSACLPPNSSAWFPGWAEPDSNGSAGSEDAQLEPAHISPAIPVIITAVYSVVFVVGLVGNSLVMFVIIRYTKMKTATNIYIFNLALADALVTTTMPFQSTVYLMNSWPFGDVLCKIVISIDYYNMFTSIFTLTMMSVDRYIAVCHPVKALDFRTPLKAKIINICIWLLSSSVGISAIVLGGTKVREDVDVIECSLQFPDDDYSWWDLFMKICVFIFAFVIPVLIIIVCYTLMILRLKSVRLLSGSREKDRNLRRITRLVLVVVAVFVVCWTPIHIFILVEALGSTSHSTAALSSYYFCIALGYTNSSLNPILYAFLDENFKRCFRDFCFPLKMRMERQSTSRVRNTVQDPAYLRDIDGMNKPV
The target of test [3] is Alpha-2A adrenergic receptor (Homo sapiens) (UniProt P08913). The experiment in a line: Inhibition of alpha2A adrenergic receptor at 10 uM.
Chain of Alpha-2A adrenergic receptor (Homo sapiens) (P08913 whole entry): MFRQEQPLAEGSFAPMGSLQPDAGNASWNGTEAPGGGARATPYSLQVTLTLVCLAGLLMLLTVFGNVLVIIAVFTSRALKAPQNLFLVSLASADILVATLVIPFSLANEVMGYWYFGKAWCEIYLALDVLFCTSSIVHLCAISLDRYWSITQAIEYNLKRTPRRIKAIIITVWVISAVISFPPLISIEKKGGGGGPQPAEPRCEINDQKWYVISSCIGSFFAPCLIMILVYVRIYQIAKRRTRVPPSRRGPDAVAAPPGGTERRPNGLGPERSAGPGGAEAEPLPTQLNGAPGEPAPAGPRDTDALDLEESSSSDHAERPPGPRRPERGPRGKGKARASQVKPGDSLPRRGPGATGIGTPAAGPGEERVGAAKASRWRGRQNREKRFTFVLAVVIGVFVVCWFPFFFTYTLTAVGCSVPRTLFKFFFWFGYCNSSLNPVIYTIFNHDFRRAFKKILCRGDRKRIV
The target in test [4] is 5-hydroxytryptamine receptor 3A (Homo sapiens) (UniProt P46098). The test is described as follows: Inhibition of 5-HT3 receptor at 10 uM.
Chain of 5-hydroxytryptamine receptor 3A (Homo sapiens) (P46098 whole entry): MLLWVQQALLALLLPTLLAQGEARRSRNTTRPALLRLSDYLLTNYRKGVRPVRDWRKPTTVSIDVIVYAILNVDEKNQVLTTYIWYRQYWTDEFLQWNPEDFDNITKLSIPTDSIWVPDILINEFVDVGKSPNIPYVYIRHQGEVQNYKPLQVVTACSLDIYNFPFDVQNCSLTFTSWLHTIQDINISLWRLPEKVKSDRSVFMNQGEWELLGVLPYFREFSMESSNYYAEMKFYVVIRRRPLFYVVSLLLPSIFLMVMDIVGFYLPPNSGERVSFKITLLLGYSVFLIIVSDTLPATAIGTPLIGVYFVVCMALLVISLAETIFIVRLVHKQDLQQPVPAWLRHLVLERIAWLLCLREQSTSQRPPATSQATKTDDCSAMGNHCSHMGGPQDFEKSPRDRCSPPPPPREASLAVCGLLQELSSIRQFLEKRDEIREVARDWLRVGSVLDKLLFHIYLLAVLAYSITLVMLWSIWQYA
For test [5], the target named is 5-hydroxytryptamine receptor 2B (Homo sapiens, UniProt P41595). The test is described as follows: Inhibition of 5-HT2B receptor.
Chain of 5-hydroxytryptamine receptor 2B (P41595 whole entry): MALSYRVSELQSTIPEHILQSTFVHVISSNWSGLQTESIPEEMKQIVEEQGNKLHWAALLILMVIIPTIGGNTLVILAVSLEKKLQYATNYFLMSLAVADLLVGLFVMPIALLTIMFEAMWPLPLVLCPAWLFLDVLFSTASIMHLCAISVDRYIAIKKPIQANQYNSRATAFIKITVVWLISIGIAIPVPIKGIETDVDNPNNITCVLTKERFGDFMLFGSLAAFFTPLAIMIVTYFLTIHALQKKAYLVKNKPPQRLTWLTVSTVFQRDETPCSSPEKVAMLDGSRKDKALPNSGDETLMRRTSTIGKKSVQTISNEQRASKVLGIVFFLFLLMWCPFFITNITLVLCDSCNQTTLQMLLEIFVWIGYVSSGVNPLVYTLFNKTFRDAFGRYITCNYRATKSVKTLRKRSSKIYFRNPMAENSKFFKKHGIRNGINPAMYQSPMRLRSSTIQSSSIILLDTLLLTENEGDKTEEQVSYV

Molecules are shown by their SMILES.

Chain of Alpha-1B adrenergic receptor (P35368 whole entry): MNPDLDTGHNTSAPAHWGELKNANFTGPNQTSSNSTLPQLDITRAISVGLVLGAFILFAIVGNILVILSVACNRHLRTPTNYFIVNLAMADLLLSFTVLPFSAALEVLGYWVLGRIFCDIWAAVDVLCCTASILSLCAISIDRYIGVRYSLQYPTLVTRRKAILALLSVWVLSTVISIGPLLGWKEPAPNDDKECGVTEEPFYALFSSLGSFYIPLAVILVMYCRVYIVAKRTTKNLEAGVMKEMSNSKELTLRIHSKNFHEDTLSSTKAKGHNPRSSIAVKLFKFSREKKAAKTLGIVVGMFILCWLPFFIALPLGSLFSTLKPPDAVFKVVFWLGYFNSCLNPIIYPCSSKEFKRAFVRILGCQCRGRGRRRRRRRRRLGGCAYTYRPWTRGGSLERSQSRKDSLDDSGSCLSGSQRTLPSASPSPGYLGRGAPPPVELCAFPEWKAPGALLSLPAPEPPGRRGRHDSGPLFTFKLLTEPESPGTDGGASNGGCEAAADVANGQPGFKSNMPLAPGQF

`CCCOc1ccc(-c2nn3c(C)cc(C)nc3c2CC(=O)N(CC)CC)cc1`: the inhibitory constant (Ki) in test [1] and in test [2] was over 10 µM each time.
In the case of `C#CCOc1ccc(-c2nn3c(C)cc(C)nc3c2CC(=O)N(CC)CC)cc1`, the inhibition in test [3] and in test [4] was under 50% throughout.
As for `CCOc1ccc(-c2nn3c(C)cc(C)nc3c2CC(=O)N(CC)CC)cc1`, the inhibition in test [4] was under 50%.
Regarding `CCCCOc1ccc(-c2nn3c(C)cc(C)nc3c2CC(=O)N(CC)CC)cc1`, in test [3], the inhibition was under 50%. For the same compound, the Ki in test [5] is 8.36 µM; in test [2], over 10 µM.
